Conditions: for mass density: Fluid (supercritical or subcritical phases), Vibrating tube method; for vapor or sublimation pressure: Liquid, Closed cell (Static) method

FC(F)=C(F)C(F)(F)F [hexafluoropropene]
mass density [kg/m3]
Conditions | 358.16 K | 362.9 K
6.3 kPa | – | 0.34
6.7 kPa | 0.18 | –
7.2 kPa | 0.21 | –
7.5 kPa | 0.23 | –
7.7 kPa | 0.26 | –
8.4 kPa | – | 0.44
8.5 kPa | 0.27 | –
8.8 kPa | 0.31 | –
9.2 kPa | 0.32 | –
9.8 kPa | 0.34 | –
10.7 kPa | – | 0.55
12.4 kPa | 0.45 | –
13.4 kPa | 0.5 | –
14.5 kPa | 0.6 | –
15.1 kPa | – | 0.65
15.5 kPa | 0.63 | –
16.5 kPa | 0.69 | –
17.2 kPa | – | 0.88
17.6 kPa | 0.76 | –
19.6 kPa | 0.84 | –
20.7 kPa | 0.88 | –
20.8 kPa | – | 1.04
21.7 kPa | 0.92 | –
22.7 kPa | 1.01 | –
23 kPa | – | 1.15
23.9 kPa | 1.07 | –
25.2 kPa | – | 1.27
25.9 kPa | 1.13 | –
26.9 kPa | 1.2 | –
27.9 kPa | 1.24 | –
29 kPa | 1.31 | –
30 kPa | 1.37 | –
31 kPa | 1.42 | –
31.8 kPa | – | 1.53
32 kPa | 1.45 | –
33 kPa | 1.5 | –
34 kPa | 1.62 | 1.65
35.1 kPa | 1.63 | –
36.1 kPa | 1.72 | –
37.4 kPa | – | 1.78
39.1 kPa | 1.8 | –
40.1 kPa | 1.85 | –
40.2 kPa | – | 2
41.2 kPa | 1.9 | –
42.2 kPa | 1.99 | –
42.3 kPa | – | 2.22
45.3 kPa | 2.13 | –
47.8 kPa | – | 2.29
52.2 kPa | 2.54 | –
57.7 kPa | – | 2.87
58.8 kPa | 2.84 | –
64.3 kPa | – | 3.19
65.5 kPa | 3.31 | –
72.2 kPa | 3.58 | –
75.1 kPa | – | 3.75
79 kPa | 3.91 | –
81.7 kPa | – | 4.07
85.8 kPa | 4.34 | –
88 kPa | – | 4.26
92.6 kPa | 4.61 | –
96.7 kPa | – | 4.85
99.4 kPa | 4.96 | –
103.1 kPa | – | 5.2
109.4 kPa | – | 5.38
115.5 kPa | 5.84 | –
122.1 kPa | – | 6.16
124.6 kPa | 6.23 | –
128.4 kPa | – | 6.44
133.8 kPa | 6.76 | –
134.6 kPa | – | 6.83
140.8 kPa | – | 7.19
142.9 kPa | 7.23 | –
146.9 kPa | – | 7.41
152 kPa | 7.73 | –
153.1 kPa | – | 7.6
161.1 kPa | 8.2 | –
162.6 kPa | – | 8.2
170.1 kPa | 8.69 | –
172.6 kPa | – | 8.83
179.2 kPa | 9.15 | –
183.5 kPa | – | 9.3
188.3 kPa | 9.64 | –
191.9 kPa | – | 9.53
197.2 kPa | 10.14 | –
201.8 kPa | 10.33 | –
205.9 kPa | – | 10.23
215.2 kPa | 11.03 | –
217.1 kPa | – | 10.89
228.6 kPa | 11.76 | –
239.3 kPa | – | 12.29
241.9 kPa | 12.39 | –
250.5 kPa | – | 12.86
255.2 kPa | 13.18 | –
261.7 kPa | – | 13.26
268.5 kPa | 13.87 | –
272.8 kPa | – | 13.91
281.6 kPa | 14.57 | –
284 kPa | – | 14.66
294.9 kPa | – | 14.96
295.2 kPa | 15.37 | –
305.9 kPa | – | 15.65
308.9 kPa | 16.07 | –
322.3 kPa | – | 16.67
323.1 kPa | 16.83 | –
337.5 kPa | 17.58 | –
338.5 kPa | – | 17.36
352.1 kPa | 18.44 | –
354.9 kPa | – | 18.21
366.8 kPa | 19.21 | –
370.9 kPa | – | 19.21
381.5 kPa | 19.95 | –
386.8 kPa | – | 19.93
396.2 kPa | 20.78 | –
402.6 kPa | – | 20.85
411 kPa | 21.59 | –
418.2 kPa | – | 21.77
427.6 kPa | 22.57 | –
444 kPa | 23.52 | –
449.3 kPa | – | 23.6
460.4 kPa | 24.33 | –
476.7 kPa | 25.35 | –
485.1 kPa | – | 25.57
492.9 kPa | 26.26 | –
500.3 kPa | – | 26.4
509.2 kPa | 27.13 | –
520.6 kPa | – | 27.39
525.3 kPa | 28.12 | –
540.4 kPa | – | 28.38
541.5 kPa | 29.02 | –
557.6 kPa | 29.96 | –
560.3 kPa | – | 29.54
575.1 kPa | 31 | –
580 kPa | – | 30.72
592.7 kPa | 31.99 | –
599.7 kPa | – | 31.79
610.1 kPa | 32.94 | –
619.3 kPa | – | 32.97
627.5 kPa | 34 | –
638.8 kPa | – | 34.15
645.1 kPa | 35.06 | –
658.1 kPa | – | 35.19
663.8 kPa | 36.18 | –
677.4 kPa | – | 36.24
682.3 kPa | 37.25 | –
696.6 kPa | – | 37.68
700.8 kPa | 38.41 | –
715.6 kPa | – | 38.68
719.1 kPa | 39.53 | –
737.3 kPa | 40.62 | –
753.3 kPa | – | 40.79
755.2 kPa | 41.68 | –
772.1 kPa | – | 41.86
773.2 kPa | 42.77 | –
790.7 kPa | – | 43.17
791.1 kPa | 43.9 | –
808.6 kPa | 44.92 | –
809.2 kPa | – | 44.11
827.4 kPa | – | 45.36
843.9 kPa | 47.16 | –
845.6 kPa | – | 46.55
861.2 kPa | 48.3 | –
863.7 kPa | – | 47.41
878.4 kPa | 49.34 | –
881.6 kPa | – | 48.62
895.4 kPa | 50.38 | –
899.5 kPa | – | 49.68
912.3 kPa | 51.52 | –
917.1 kPa | – | 50.72
929.2 kPa | 52.65 | –
934.7 kPa | – | 52.13
945.9 kPa | 53.68 | –
952.2 kPa | – | 53.09
964.1 kPa | 54.95 | –
969.4 kPa | – | 54.03
981.4 kPa | 56.09 | –
999 kPa | 57.2 | –
1004 kPa | 57.55 | –
1037.2 kPa | 59.89 | –
1056.7 kPa | 61.12 | –
1079.5 kPa | 62.72 | –
1113.6 kPa | 65.06 | –
1151.3 kPa | 67.79 | –
1177.8 kPa | 69.69 | –
1204.6 kPa | 71.61 | –
1231.5 kPa | 73.4 | –
1251 kPa | 74.95 | –
1277.5 kPa | 76.93 | –
1297.2 kPa | 78.23 | –
1318.3 kPa | 79.8 | –
1351 kPa | 82.19 | –
1384.5 kPa | 84.6 | –
1419.6 kPa | 87.38 | –
1453.8 kPa | 89.96 | –
1487.2 kPa | 92.64 | –
1522.4 kPa | 95.5 | –
1557 kPa | 98.35 | –
1592 kPa | 101.11 | –
1624.7 kPa | 103.88 | –
1659.3 kPa | 106.85 | –
1677.7 kPa | 108.37 | –
1712.3 kPa | 111.38 | –
1748.1 kPa | 114.59 | –
1780.9 kPa | 117.54 | –
1815.7 kPa | 120.8 | –
1848.2 kPa | 123.82 | –
1883.1 kPa | 127.18 | –
1916.7 kPa | 130.47 | –
1948.8 kPa | 133.66 | –
1982.5 kPa | 137.05 | –
2016.7 kPa | 140.6 | –
2051.6 kPa | 144.28 | –
2085.7 kPa | 147.98 | –
2118.7 kPa | 151.7 | –
2152.9 kPa | 155.54 | –
2185.6 kPa | 159.34 | –
2250.5 kPa | 167.24 | –
2283.4 kPa | 171.42 | –
2316.3 kPa | 175.71 | –
2349.2 kPa | 180.05 | –
2381.8 kPa | 184.6 | –
2414.3 kPa | 189.16 | –
2462.8 kPa | 196.45 | –
2529.2 kPa | 206.94 | –
2562.6 kPa | 212.61 | –
2581.2 kPa | 215.74 | –
2616.7 kPa | 222.24 | –
2635.2 kPa | 225.67 | –
2669.9 kPa | 232.45 | –
2703.7 kPa | 239.44 | –
2738.3 kPa | 247.03 | –
2771.6 kPa | 254.87 | –
2806.3 kPa | 263.68 | –
2839.2 kPa | 272.73 | –
2872.4 kPa | 282.77 | –
2905.9 kPa | 293.88 | –
2939.1 kPa | 305.79 | –
2972 kPa | 319.7 | –
3000.1 kPa | 333.22 | –
3003 kPa | 334.75 | –
3005.7 kPa | 336.23 | –
3008.2 kPa | 337.55 | –
3010.9 kPa | 338.92 | –
3013.2 kPa | 340.27 | –
3015.5 kPa | 341.83 | –
3017.6 kPa | 343.29 | –
3019.8 kPa | 344.7 | –
3022.4 kPa | 346.21 | –
3025.8 kPa | 348.17 | –
3027.8 kPa | 349.31 | –
3031.6 kPa | 351.6 | –
3035.5 kPa | 354.08 | –
3037.5 kPa | 355.4 | –
3041.3 kPa | 357.97 | –
3045.1 kPa | 360.72 | –
3047.1 kPa | 362.14 | –
3050.9 kPa | 364.96 | –
3054.3 kPa | 367.81 | –
3057.8 kPa | 370.74 | –
3061.2 kPa | 373.72 | –
3064.5 kPa | 376.75 | –
3067.7 kPa | 379.88 | –
3071 kPa | 383.12 | –
3074 kPa | 386.4 | –
3077 kPa | 389.78 | –

Conditions | vapor or sublimation pressure [kPa]
358.26 K | 3095.1
358.76 K | 3128.1
